We go through one compound from patent US20240058344A1, “METHODS OF TREATING NEURODEGENERATIVE DISORDERS AND STAT3-LINKED CANCERS USING SUPPRESSORS OF ELECTRON LEAK” (Cornell University, priority 2020, published 2024).

The nature of data set [1]: Solubility in aqueous solutions. The data set is classed as physicochemical.
Data set [2] has as its system ASC/Pycard; CD11b. The data set is described as follows: Immunolabeling of ASC/Pycard and CD11b in hippocampal tissue of hTauP301S mice. The data set is classed as in vivo. The settings on record: 6 weeks oral dosing. The text has this:
Levels of immunolabeling for the inflammasome protein ASC/Pycard (FIG. 6A) and the microglial marker CD11b (FIG. 6B) in hippocampal tissue from nontransgenic (NTG) and hTauP301S mice after 6 weeks of oral dosing with S3QEL2 or vehicle. n=3-6 mice per group. *p<0.05, **p<0.01, ***p<0.001, ANOVA with Dunnett's test.
As assessed by immunolabeling, hTauP301S mice treated with S3QEL2 also had reduced levels of glial fibrillary acidic protein (GFAP)-positive astrogliosis and phosphorylated tau (FIG. 7). Western blotting confirmed reduced levels of phosphorylated but not total tau in these mice (FIG. 5).

For data set [3], the system named is T98G glioblastoma cells. The data set is described as follows: Glioblastoma cell proliferation, CellTiter-Glo luciferase assay, T98G. The class given is cell-based, human. Conditions: 0-50 μM, 72 and 96 h. The method, then:
(§1) Relative cell density was measured using the CellTiter-Glo luciferase assay. n=3 wells per condition. *p<0.05, **p<0.01, ***p<0.001 vs. 0 μM, one-way ANOVA with Dunnett's multiple comparisons test.
(§2) The effect of S3QELs on proliferation of glial tumor cells that have different oncogenic mutations was assessed. In particular, proliferation rates were assessed in three different human immortalized glioblastoma cells lines (A-172, T98G, and U-87 MG). A-172 and U-87 lines have mutations in PTEN, a phosphatase that indirectly regulates PI3K activities, whereas T98G cell line has a mutation in p53, a well-known tumor suppressor gene. STAT3 can affect PI3K signaling and p53 transcription and could thereby promote glioblastoma cell proliferation. Whether S3QELs reduce glioblastoma cell proliferation and aberrant intracellular signaling was tested.
(§3) Briefly, two complementary methods were used to assess cell proliferation, including the CellTiter-Glo assay and DAPI staining of cell nuclei. The effects of S3QEL2 treatment on A-172, T98G, and U-87 MG cells were measured at different drug concentrations (0, 6, 20, 30, 40, or 50 μM) and time-points after treatment (72 or 96 hours). S3QEL2 inhibits proliferation of A-172 and T98G glioblastoma cells in a highly dose-dependent manner and these effects are similar at different time-points (FIG. 15A-B).
A general note: ATP-based viability assays read luminescence as a measure of living cells.

For data set [4], the system named is genes linked to neuroinflammation and glial reactivity. The data set is described as follows: Microfluidic RT-qPCR panel of neuroinflammation-related genes in hippocampi of hTauP301S mice. The data set is classed as in vivo. The settings on record: 10-month-old hTauP301S mice, six weeks oral dosing, vs vehicle. The method, then:
Subset of neuroinflammatory markers measured by RT-qPCR in hippocampi of 10-month-old male nontransgenic (NTG) or hTauP301S mice after 6 weeks of oral dosing with 5 mg/kg/day S3QEL2, 10 mg/kg/day S1QEL1.1, or vehicle. […] Average fold-change vs NTG. n=3-5 mice per group.
Next, studies were conducted to test if S3QEL2 or SIQEL1.1 altered the expression of genes involved in neuroinflammation and glial reactivity in hTauP301S mice.
A general note: Quantitative PCR measures a nucleic acid by following its amplification.

The test system of data set [5] is astrocytes. Description: Oxygen consumption rates (mitochondrial respiration) in astrocytes. The class given is cell-based. From the text: Oxygen consumption rates (OCR) and maximal consumption rates are shown for indicated S3QEL2 concentrations and time points. Antimycin and rotenone were used as positive controls to inhibit mitochondrial respiration. ***p<0.001 vs. vehicle, two-way repeated measures ANOVA with Dunnett's multiple comparisons test.

The subject of data set [6] is U-87 MG glioblastoma cells. Description: Glioblastoma cell proliferation, DAPI staining of cell nuclei, U-87 MG. The settings on record: 72 h. The data set is classed as cell-based, human. The protocol: Cell density was measured using DAPI staining of cell nuclei and quantification of fluorescence intensities. n=3 wells per condition. […] STAT3 levels were measured by Western blotting. STAT3 levels were normalized to γ-tubulin levels within each cell lysate and expressed as fold change relative to U-87MG cells. n=4 wells per condition. **p<0.01, ***p<0.001 vs. 0 μM or U-87MG, one-way ANOVA with Dunnett's multiple comparisons test.
as §3

Data set [7] deals with A-172 glioblastoma cells. The data set is described as follows: Glioblastoma cell proliferation, CellTiter-Glo luciferase assay, A-172. The data set is classed as cell-based, human. The settings on record: 0-50 μM, 72 and 96 h. The protocol:
as §1, §2, §3

In data set [8] the test system is hTauP301S mice. Description: Survival of hTauP301S mice on S3QEL2-formulated chow. Conditions: long-term chow administration from 4-5 months of age. The class given is in vivo. From the text:
Nontransgenic (NTG) and transgenic hTauP301S male mice received oral dosing with S3QEL2-formulated chow or control chow (Control) for indicated durations starting at 4-5 months of age. n=14-15 mice per genotype and treatment, pairwise Mantel-Cox test.
Survival rates in wild-type and transgenic hTauP301S mice during chronic treatment with control or S3QEL2-containing chow was also monitored.

Data set [9] is described as follows: Brain levels of compound after i.p. injection or oral consumption (pharmacokinetics). The data set is classed as in vivo, mice. The method, then: (FIGS. 1A-B) Levels of S3QEL2 (FIG. 1A) and S1QEL1.1 (FIG. 1B) in the brain following a single i.p. injection or oral consumption (per oral, PO), which improved duration of exposure. n=3-6 wild-type mice per group. (FIGS. 1C-D) Body weights of male nontransgenic (NTG) or hTauP301S mice treated with S3QEL2 (FIG. 1C) (S3, 5 mg/kg/day, PO in almond butter), S1QEL1.1 (FIG. 1D) (10 mg/kg/day, PO in almond butter), or vehicle. (FIG. 1E) Levels of S3QEL2 in the mouse brain following almond butter (AB) or chow administration at indicated doses for 21 days. (n=15 mice per dose). n=3-15 wild-type mice per condition. (FIG. 1F) Body weight of 4-5-month-old wild-type male mice treated with formulated chow containing S3QEL2 at indicated doses and durations (n=15 mice per dose).
A series of pharmacokinetic and drug tolerance experiments with S3QEL2 in adult wild-type and transgenic hTauP301S mice was first performed. Different administration routes and drug formulations were tested. […] Chow that was formulated to deliver 0, 5, 15, or 30 mg/kg/day of S3QEL2 was also tested.

For `CCCN(CCC)c1ncnc2c1cnn2-c1ccc(C)c(C)c1` [S3QEL2], the “Solubility in aqueous solutions” value in data set [1] is on record as “limited solubility in aqueous solutions”. For the same compound, in [2], the ASC/Pycard protein immunolabeling entry was “reduced” and the CD11b protein immunolabeling entry was “reduced”. In addition, the “Cell proliferation (relative cell density, CellTiter-Glo)” value in data set [3] was “dose-dependently inhibited cell proliferation”. Also, in data set [4], the “Expression of genes linked to neuroinflammation and glial reactivity” value is “reduced expression of diverse genes linked to neuroinflammation and glial reactivity”. Moreover, the “Mitochondrial respiration (oxygen consumption rates, OCR)” value in data set [5] is recorded as “does not affect mitochondrial respiration”. For the same compound, the “Cell proliferation (cell density, DAPI staining)” value in [6] is “but not U-87 MG cells”. In data set [7], the “Cell proliferation (relative cell density, CellTiter-Glo)” value was “dose-dependently inhibited cell proliferation”. In addition, the “Early mortality associated with tauopathy” value in [8] is recorded as “significantly reduced early mortality”. Moreover, the “Crossing of the blood-brain barrier (levels in the brain)” value in data set [9] (after peripheral administration, wild-type mice) is reported as “readily crossed the blood-brain barrier”. In addition, the “Increase in the area under the curve of drug presence in the brain, oral intake as compared to i.p. injection” value in [9] (brain, oral vs intraperitoneal) is listed as 6 fold. Also, in data set [9] (chow vs almond butter, 21 days, wild-type mice), the “Chronic delivery to the brain by formulated chow” value is recorded as “equally effective in chronically delivering S3QEL2 to the brain”.
